Experiments:
lipase = test: Lipase inhibition assay (glycerol generated from cleavage of triglycerides, Sigma MAK046 kit); format: biochemical; conditions: relative to untreated lipase enzyme
Experimental: The lipase inhibition activities of the pineapple flesh, core, and stem crude extracts were determined by measuring the glycerol generated from the cleavage of triglycerides. The storage and preparation instruction were done according to the stated protocol of MAK, 046, Sigma Aldrich®, St. Louis, MO, USA.
Twenty μL of 750 mg/mL flesh, core, and stem at 100 mg/mL final concentration crude extracts were added to their respective wells.
Two μL of the lipase and Orlistat™ at 100 mg/mL and 10 mg/mL, respectively, were added to wells to serve as negative and positive control. All standards and samples were adjusted to 50 μL by adding Lipase Assay Buffer. A 100-μL reaction mix consisting of 93 μL Lipase Assay Buffer, 2 μL peroxidase substrate, 2 μL enzyme mix and 3 μL of lipase substrate was added to each well.
Absorbance was read at 570 nm every five minutes using CLARIOStar™ microplate reader at 37° C. incubation at slow kinetics mode for two hours. The percent lipase inhibition was calculated relative to the untreated lipase enzyme.

HMG-CoA reductase = target: T1, HMG-CoA reductase (Homo sapiens, UniProt P04035); test: HMG-CoA reductase inhibition assay (NADPH oxidation at 340 nm, Sigma CS1090 kit); format: biochemical; conditions: sample concentration 2.1 μg/mL
T1 construct: by the catalytic subunit of 3-hydroxy-3-methylglutaryl CoA reductase; purchased Sigma Aldrich CS1090
T1 sequence (P04035 340-888 limits assumed): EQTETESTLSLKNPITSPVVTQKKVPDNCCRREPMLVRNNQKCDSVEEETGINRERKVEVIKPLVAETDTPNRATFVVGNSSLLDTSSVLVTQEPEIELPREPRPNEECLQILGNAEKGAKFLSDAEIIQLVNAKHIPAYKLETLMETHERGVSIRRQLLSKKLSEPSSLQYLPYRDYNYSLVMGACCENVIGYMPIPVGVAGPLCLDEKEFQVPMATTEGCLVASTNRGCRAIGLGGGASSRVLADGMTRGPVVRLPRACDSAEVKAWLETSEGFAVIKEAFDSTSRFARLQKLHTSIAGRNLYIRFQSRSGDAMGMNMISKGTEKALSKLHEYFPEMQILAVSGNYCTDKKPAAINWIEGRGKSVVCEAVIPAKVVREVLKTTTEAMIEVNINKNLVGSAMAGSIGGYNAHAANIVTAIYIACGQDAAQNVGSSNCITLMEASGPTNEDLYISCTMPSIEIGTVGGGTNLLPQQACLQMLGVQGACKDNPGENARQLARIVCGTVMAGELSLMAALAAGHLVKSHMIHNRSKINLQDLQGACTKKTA
Experimental: The assay was based on the spectrophotometric measurement of the decrease in absorbance at 340 nm, which represents the oxidation of Nicotinamide Adenine Dinucleotide Phosphate (NADPH) by the catalytic subunit of 3-hydroxy-3-methylglutaryl CoA reductase in the presence of substrate HMG-CoA. All storage and reagent preparations were performed according to the protocol (CS1090, Sigma Aldrich®, St. Louis, MO, USA).
Assay buffer (1×) in the HMG-CoA assay kit was added to all samples. 184 μL for the blank, 182 μL for the activity control, 181 μL for the inhibition control and samples according to the manufacturer's instructions in the Sigma-Aldrich® CS1090 assay kit.
Pravastatin™ (2.1 μg/mL) positive control, 20 μL of […], core (100 mg/mL final concentration) and 20 μL of 50 mg/mL stem (5 mg/mL final concentration) crude extracts were added to its assay buffers. Lower reaction concentration of extracts (20 μL of 250 mg/mL to obtain 25 mg/mL final concentration of flesh and core crude extracts) was also tested against HMG-CoA reductase enzyme.
Four μL of NADPH and 12 μL HMG-CoA substrate were also added to the treatments. The HMG-CoA reductase enzyme (2 μL) was kept on ice until added to the activity, inhibition controls, and samples.
The absorbance at 340 nm was monitored for every 20 seconds for up to 10 minutes using CLARIOStar™ plate reader. […]

| Structure (SMILES) | Lipase inhibition activity (lipase; sample concentration 10 mg/mL) [%] | Lipase inhibition activity (lipase; sample concentration 100 mg/mL) [%] | HMG-COA reductase inhibition activity (HMG-CoA reductase) [%] |
| --- | --- | --- | --- |
| CCCCCCCCCCC[C@@H](C[C@@H]1OC(=O)[C@H]1CCCCCC)OC(=O)[C@H](CC(C)C)NC=O [Orlistat ™, Orlistat] | 100±0.05 | 100 ± 0.05 | – |
| CC[C@H](C)C(=O)O[C@H]1C[C@H](O)C=C2C=C[C@H](C)[C@H](CC[C@@H](O)C[C@@H](O)CC(=O)O)[C@H]21 [Pravstatin ™, Pravastatin] | – | – | 82 |
